Data reported in US20250243219A1, “MACROCYCLIC COMPOUNDS AND USES THEREOF” (Cypralis Limited, priority 2022, published 2025).

What was measured:
[1] = target: cyclophilin D (Homo sapiens (Human), UniProt P30405); test: Functional peptidyl prolyl isomerase (PPIase) spectrophotometric assay, cyclophilin D; type: biochemical; details: second value of CypA/D cell; read-out: Ki CypD
How it was run: (§1)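 Cuvette-based UV/Vis assay of PPIase-catalysed cis-to-trans isomerisation of a peptide substrate. First-order rate constants fitted to absorbance, background rate subtracted. Ki derived from rate constant versus inhibitor concentration, typically 6-point curves in duplicate.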

[2] = target: cyclophilin A (Homo sapiens (Human), UniProt P62937); test: Functional peptidyl prolyl isomerase (PPIase) spectrophotometric assay, cyclophilin A; type: biochemical; details: first value of CypA/D cell
Chain of cyclophilin A (P62937 whole entry, species assumed): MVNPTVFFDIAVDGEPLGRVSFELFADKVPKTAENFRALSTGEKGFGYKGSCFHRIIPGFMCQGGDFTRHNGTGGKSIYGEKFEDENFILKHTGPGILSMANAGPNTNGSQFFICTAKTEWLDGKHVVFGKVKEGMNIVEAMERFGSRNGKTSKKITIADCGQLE
How it was run: as §1

[3] = Blood-brain barrier penetration, intravenous dosing; type: in vivo, rodents (mice or rats); details: 3 mg/kg intravenous; for Brain concentration / Plasma concentration: at 30 min.
Procedure: Test compounds were administered to rodents (mice or rats) either orally, subcutaneously or intravenously. To determine blood or plasma concentrations blood samples were taken at different time points and analysed for the concentration of test compound by LC/MS. Brain concentrations were measured by sacrificing animals and LC/MS analysis of brain homogenate.
The results for Compounds (2), (19), (6) and (27) are summarised in Table 6 showing concentrations of the Compounds in blood plasma and the brain.

[4] = system: permeabilised HepG2 cells; test: Calcium retention capacity (CRC) assay in permeabilised HepG2 cells (MPTP opening); type: cell-based, human; design: CRC [10 μM]: unit not given here; details: compound at 10 μM; for CRC [10 μM]: digitonin permeabilised HepG2 cells; for CRC [10 μM] (ratio vs CsA): normalised to cyclosporin A, value in brackets
How it was run: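 Digitonin-permeabilised HepG2 cells received trains of calcium pulses (typically 5 μM) monitored with Calcium Green-5N until buffering failed, marking permeability transition. Runs with and without compound; calcium retained at 10 μM compound expressed as ratio versus cyclosporin A positive control.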

[5] = system: SH-SY5Y cells; test: Thapsigargin treated cell death assay in SH-SY5Y cells; type: cell-based, human; details: compound at 10 μM, positive = protection from cell death, negative = compound toxicity
From the text: Thapsigargin raises intracellular free calcium (Ca^2+) by potently inhibiting the endoplasmic reticulum Ca-ATPase, which sequesters Ca^2+ from the cytosol. The increased cytosolic Ca^2+ concentration is buffered by mitochondria by exchanging Ca^2+ for K, leading to depolarisation in the inner mitochondrial membrane and permeability transition.
The thapsigargin treated Jurkat cell death assay is a homogeneous 96 well plate based assay for cell death, instigated by the opening of the mitochondrial permeability transition pore (MPTP). The addition of thapsigargin to Jurkat cells results in an influx of calcium, the increase in intracellular calcium will initially be buffered by the mitochondria, but eventually the increasing calcium concentration will result in the opening of the MPTP, resulting in cell death.
CellTox™ Green is a dye which is unable to enter the cell until cell death leads to the loss of membrane integrity. Once this happens the CellTox™ Green enters the cell, binds to the cell's DNA and emits a fluorescent signal. […] Unless otherwise stated, the assay is typically run using a range of three compound concentrations of 1, 3 and 10 μM in triplicate and is read kinetically over a period of 24 hours. Compounds are added 30 minutes before the addition of thapsigargin. Compound only controls and positive control, cyclosporin A (CsA) (3 and 10 μM) are also included in the assay. Results are typically calculated at the 8 hour time point and the kinetic data is also reported.
The assay is carried out as described for the Jurkat cells but using the SH-SY5Y (human neuroblastoma) cell line instead of Jurkat cells. The results are shown in the fourth column of Table 5 (SY5Y [10 μM]% recovery). Positive numbers indicate protection from cell death, negative numbers indicate compound toxicity.

Chain of cyclophilin D (P30405 30-207, species assumed): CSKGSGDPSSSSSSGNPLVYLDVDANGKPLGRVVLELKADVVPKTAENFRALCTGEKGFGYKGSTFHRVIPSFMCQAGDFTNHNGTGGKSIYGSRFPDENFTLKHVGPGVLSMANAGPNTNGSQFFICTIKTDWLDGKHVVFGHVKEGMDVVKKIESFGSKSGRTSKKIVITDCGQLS

Row | SMILES | Ki [1] | Ki [2] | Blood-brain barrier passage [3] | Brain concentration [3] | Plasma concentration [3] | CRC [10 μM] [4] | CRC [10 μM] (ratio vs CsA) [4] | CRC [10 μM] (ratio vs CsA) ([4]; listed as 33) | SYSY [10 μM] % recovery [5] | CRC [10 μM] ([4]; listed as 41) | CRC [10 μM] (ratio vs CsA) ([4]; listed as 41) | SYSY [10 μM] % recovery ([5]; listed as 41)
1 | CC(C)[C@@H]1OC(=O)C2(/C=C/c3ccc4ccc(nc4c3)N(C)N(C)C(=O)[C@@H]3CCCN(N3)C(=O)[C@H](C)NC1=O)COCOC2 [(19)] | 150 nM | 23 nM | passed the blood-brain barrier | 116 ng/mL | 74 ng/mL | 30 | 0.77 |  |  |  |  | 
2 | CC(C)[C@@H]1OC(=O)C(C)(C)C/C=C/c2ccc3ccc(nc3c2)N(C)NC(=O)[C@@H]2CCCN(N2)C(=O)[C@H](C)NC1=O [Compound (6)] | > 10 nM | > 10000 nM | passed the blood-brain barrier | 197 ng/mL | 1216 ng/mL |  |  |  |  |  |  | 
3 | C[C@@H]1NC(=O)[C@@H](CC2CCCNC2)OC(=O)C(C)(C)/C=C/c2ccc3ccc(nc3c2)N(C)N(C)C(=O)[C@@H]2CCCN(N2)C1=O (single isomer, unassigned) [Compound (33)] | 3800 nM | 280 nM |  |  |  | 5 |  | 0.2 | 9% |  |  | 
4 | CC(C)[C@@H]1OC(=O)C(C)(C)/C=C/c2ccc3ccc(nc3c2)N(C)NC(=O)[C@@H]2CCCN(N2)C(=O)[C@H](C2CC2)NC1=O [Compound (80)] | 22 nM | 4 nM |  |  |  | 25 | 1.00 |  | 29.2% |  |  | 
5 | CNC(=O)c1ccc(C[C@@H]2OC(=O)C(C)(C)/C=C/c3ccc4ccc(nc4c3)N(C)N(C)C(=O)[C@@H]3CCCN(N3)C(=O)[C@H](C)NC2=O)cc1 [Compound (12)] | 49 nM | 240 nM |  |  |  | 15 | 0.75 |  | 25% |  |  | 
6 | CC(C)[C@@H]1OC(=O)C(C)(C)/C=C/c2ccc3ccc(nc3c2)N(C)NC(=O)[C@@H]2CCCN(N2)C(=O)[C@H](CCC(=O)NC2CCN(C)CC2)NC1=O [Compound (71)] | 16 nM | 51 nM |  |  |  | 18.3 | 0.76 |  | 4% |  |  | 
7 | C[C@@H]1NC(=O)C(CCc2ccccc2)OC(=O)C(C)(C)/C=C/c2ccc3ccc(nc3c2)N(C)NC(=O)[C@@H]2CCCN(N2)C1=O (single isomer, unassigned) [(27)] |  |  | passed the blood-brain barrier | 285 ng/mL | 1382 ng/mL |  |  |  |  |  |  | 
8 | CC(C)C(=O)Nc1cccc(C[C@@H]2OC(=O)C(C)(C)/C=C/c3ccc4ccc(nc4c3)N(C)NC(=O)[C@@H]3CCCN(N3)C(=O)[C@H](C)NC2=O)c1 [Compound (49)] | 14 nM | 22 nM |  |  |  | 20 | 1.00 |  | 40% |  |  | 
9 | C[C@@H]1NC(=O)[C@H](CCCN)OC(=O)C(C)(C)/C=C/c2ccc3ccc(nc3c2)N(C)NC(=O)[C@@H]2CCCN(N2)C1=O [Compound (55)] | 1900 nM | 110 nM |  |  |  | 5 | 0.25 |  | 37% |  |  | 
10 | CC(C)[C@@H]1OC(=O)C(C)(C)/C=C/c2ccc3ccc(nc3c2)N(C)NC(=O)[C@@H]2CCCN(N2)C(=O)[C@H](CCC(=O)NCc2cccnc2)NC1=O [Compound (65)] | 22 nM | 14 nM |  |  |  | 20 | 0.90 |  | 51% |  |  | 
11 | CC(C)[C@@H]1NC(=O)C(C)(C)/C=C/c2ccc3ccc(nc3c2)N(C)NC(=O)[C@@H]2CCCN(N2)C(=O)[C@H](C)NC1=O [Compound (22)] | 27 nM | 13 nM |  |  |  | 25 | 0.83 |  | 4% |  |  | 
12 | C[C@@H]1NC(=O)[C@H](CCl)OC(=O)C(C)(C)/C=C/c2ccc3ccc(nc3c2)N(C)NC(=O)[C@@H]2CCCN(N2)C1=O [Compound (53)] | 28 nM | 15 nM |  |  |  | 25 | 0.83 |  | 21% |  |  | 
13 | C[C@@H]1NC(=O)C(Cc2ccc(C(=O)O)cc2)OC(=O)C(C)(C)/C=C/c2ccc3ccc(nc3c2)N(C)NC(=O)[C@@H]2CCCN(N2)C1=O (single isomer, unassigned) [Compound (41)] | 220 nM | 30 nM |  |  |  |  |  |  |  | 10 | 0.67 | 0%
14 | C[C@@H]1NC(=O)[C@H](C[C@H]2CCCN(C)C2)OC(=O)C(C)(C)/C=C/c2ccc3ccc(nc3c2)N(C)NC(=O)[C@@H]2CCCN(N2)C1=O [Compound (37)] | 160 nM | 150 nM |  |  |  | 5 | 0.33 |  | 41% |  |  | 
15 | COC[C@@]1(C)/C=C/c2ccc3ccc(nc3c2)N(C)NC(=O)[C@@H]2CCCN(N2)C(=O)[C@H](C)NC(=O)[C@H](C(C)C)OC1=O [Compound (13)] | 11 nM | 4.9 nM |  |  |  | 35 | 0.95 |  | 8.4% |  |  | 
16 | C[C@@H]1NC(=O)[C@H](C[C@@H]2CCCNC2)OC(=O)C(C)(C)/C=C/c2ccc3ccc(nc3c2)N(C)NC(=O)[C@@H]2CCCN(N2)C1=O [Compound (57)] | 7.6 nM | 7.8 nM |  |  |  | 15 | 0.75 |  | 48.48% |  |  | 
17 | CC(C)[C@@H]1OC(=O)C(C)(C)/C=C/c2ccc3ccc(nc3c2)N(C)NC(=O)[C@@H]2CCCN(N2)C(=O)[C@H](Cc2ccccc2)NC1=O [Compound (76)] | 6.3 nM | 5.6 nM |  |  |  | 33.9 | 0.97 |  | 27.6% |  |  | 
